Assay [1] concerns Influenza A/WSN/33 virus (H1N1). The assay is described as follows: microbe, parasite or virus in culture. The assay is classed as cell-based.
Assay [2] concerns influenza virus.

Take `CCCCCCCCCCCCC/C=C/[C@@H](O)[C@H](CO)N(C)C` [DMS, D-erythro-N,N-dimethylsphingosine]: the “production of infectious influenza virus particles (virus titer, plaque assay)” value in assay [1] is reported as “suppressed the production of infectious influenza virus particles”. For the same compound, in assay [2], the “influenza viral protein expression” value is reported as “inhibition was also observed” and the “influenza viral protein expression (NP, NS1, NS2, M1, M2)” value is recorded as “inhibited influenza viral protein expression”.

Consider `Oc1ccc(Nc2nc(-c3ccc(Cl)cc3)cs2)cc1` [SKI-II, 4-[4-(4-Chloro-phenyl)-thiazol-2-ylamino]-phenol], for which the “production of infectious influenza virus particles (virus titer, plaque assay)” value in assay [1] was “suppressed the production of infectious influenza virus particles”. In addition, in assay [2], the “influenza viral protein expression” value is on record as “inhibition was also observed” and the “influenza viral protein expression (NP, NS1, NS2, M1, M2)” value is reported as “inhibited influenza viral protein expression”.

These data come from patent publication US9687477B2 (priority 2011, dated 2017).
